20 compounds from US9796711B2, “Substituted pyrazolo[3,4-b]pyridin-6-carboxylic acids and method of use” (AbbVie S.àr.l., priority 2015, dated 2017) can be followed below.

Experiment [1] concerns the target T1, ΔF508-CFTR (Homo sapiens, UniProt P13569, DEL508-508).
T1 construct: host or cells: CFBE41o-, doxycycline-inducible
The experiment is described as follows: CFTR cell surface levels using HRP-tagged ΔF508-CFTR expressing CFBE cells, intrinsic corrector capacity. It is filed as cell-based. Conditions: for EC50: read-out: EC50. In a few lines:
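Here the cells express ΔF508-CFTR with horseradish peroxidase inserted in extracellular loop 4, so only rescued channel at the surface gives luminescent signal. Compounds act on their own, 20 h at the reduced temperature of 33 °C; values are percent activity relative to DMSO and a 3 μM corrector.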

The target in experiment [2] is T1, ΔF508-CFTR. The experiment is described as follows: CFTR cell surface levels using HRP-tagged ΔF508-CFTR expressing CFBE cells, in the presence of a co-corrector. In kind it is cell-based. Conditions: HRP-tagged ΔF508-CFTR expressing CFBE cells, in the presence of 3 μM co-corrector; for EC50: read-out: EC50. In a few lines:
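Cells were seeded with 0.5 μg/mL doxycycline and held 68 h at 37 °C. Test compounds plus 3 μM co-corrector (final 0.1% DMSO) were then added for 20 h at 33 °C. Washed cells received HRP substrate, and luminescence was normalized between DMSO and 3 μM co-corrector controls.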

Where [3] appears, read: HRP-tagged ΔF508-CFTR expressing CFBE cells, intrinsic corrector capacity (no co-corrector), 33° C., 20 hours.
Setting [4] is: HRP-tagged ΔF508-CFTR CFBE41o- cells, compounds alone (intrinsic corrector capacity), 20 hours at 33° C., positive control 3 μM corrector.
The mark [5] stands for this setting: HRP-tagged ΔF508-CFTR CFBE41o- cells, compounds alone (intrinsic corrector capacity), 20 hours at 33° C.

T1 sequence (P13569 with tags, fused parts or gaps DEL508-508): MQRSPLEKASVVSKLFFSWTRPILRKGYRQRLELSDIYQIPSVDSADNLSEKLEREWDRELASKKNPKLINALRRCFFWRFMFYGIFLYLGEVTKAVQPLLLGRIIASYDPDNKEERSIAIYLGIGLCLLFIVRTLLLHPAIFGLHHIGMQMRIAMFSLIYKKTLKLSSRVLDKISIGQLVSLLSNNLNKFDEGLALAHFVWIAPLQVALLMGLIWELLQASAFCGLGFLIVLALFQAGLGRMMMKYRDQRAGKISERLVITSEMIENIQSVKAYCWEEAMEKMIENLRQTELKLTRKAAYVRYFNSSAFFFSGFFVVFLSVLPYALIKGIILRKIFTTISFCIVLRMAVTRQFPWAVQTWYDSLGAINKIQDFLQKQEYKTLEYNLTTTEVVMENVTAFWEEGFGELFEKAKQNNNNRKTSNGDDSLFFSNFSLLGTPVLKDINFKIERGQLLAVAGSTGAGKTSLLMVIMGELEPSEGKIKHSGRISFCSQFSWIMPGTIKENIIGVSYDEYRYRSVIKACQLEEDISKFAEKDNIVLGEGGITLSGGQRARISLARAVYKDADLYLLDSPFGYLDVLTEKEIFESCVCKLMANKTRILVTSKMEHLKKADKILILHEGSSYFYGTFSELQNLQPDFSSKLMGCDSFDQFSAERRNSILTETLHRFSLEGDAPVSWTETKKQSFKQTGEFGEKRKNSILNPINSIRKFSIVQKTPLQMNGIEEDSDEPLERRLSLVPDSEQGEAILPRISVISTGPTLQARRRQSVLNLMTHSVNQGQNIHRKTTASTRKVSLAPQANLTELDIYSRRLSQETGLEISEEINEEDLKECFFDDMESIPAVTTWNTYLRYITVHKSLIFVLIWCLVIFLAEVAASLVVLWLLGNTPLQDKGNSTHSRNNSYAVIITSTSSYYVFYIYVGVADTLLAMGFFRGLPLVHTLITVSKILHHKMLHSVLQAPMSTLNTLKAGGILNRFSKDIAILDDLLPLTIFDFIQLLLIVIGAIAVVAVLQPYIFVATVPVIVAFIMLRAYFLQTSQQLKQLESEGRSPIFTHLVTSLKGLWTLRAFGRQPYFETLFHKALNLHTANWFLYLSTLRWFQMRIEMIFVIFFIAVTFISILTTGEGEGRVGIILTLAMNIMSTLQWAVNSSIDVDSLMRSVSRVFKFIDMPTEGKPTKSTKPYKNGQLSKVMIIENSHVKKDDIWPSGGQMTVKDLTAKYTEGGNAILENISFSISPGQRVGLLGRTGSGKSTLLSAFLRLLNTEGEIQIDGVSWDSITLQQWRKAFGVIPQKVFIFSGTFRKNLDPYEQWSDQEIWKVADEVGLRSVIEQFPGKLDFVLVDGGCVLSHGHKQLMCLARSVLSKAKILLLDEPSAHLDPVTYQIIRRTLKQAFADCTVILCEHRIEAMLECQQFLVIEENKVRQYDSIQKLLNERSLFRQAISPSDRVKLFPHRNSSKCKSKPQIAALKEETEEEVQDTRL

Consider `COCC1(F)CCN(c2cc(C(=O)O)nc3c2c(C2CCC2)nn3-c2ccccc2)C1` (centres unmarked) [compound 508, 3-cyclobutyl-4-[3-fluoro-3-(methoxymethyl)pyrrolidin-1-yl]-1-phenyl-1H-pyrazolo[3,4-b]pyridine-6-carboxylic acid], for which, at ΔF508-CFTR [1] (setting [3]), the “% Activation” value stood at 104.6% and the EC50 was determined as 1110 nM. Further, at ΔF508-CFTR [2], the “% Activation” value is listed as 271.8% and the EC50 was 451 nM.

With `O=C(O)c1cc(OCCCN2CCCCC2)c2c(C3CCC3)nn(-c3ccccc3)c2n1` [compound 642, 3-cyclobutyl-1-phenyl-4-[3-(piperidin-1-yl)propoxy]-1H-pyrazolo[3,4-b]pyridine-6-carboxylic acid], the “% Activation” value on ΔF508-CFTR [1] (setting [3]) is 125.9%; at ΔF508-CFTR [2] it was 281.95%. Further, the values for the EC50 on ΔF508-CFTR [1] (setting [3]) and on ΔF508-CFTR [2] were 3330 nM and 2400 nM, respectively.

For the compound `Cc1nn(-c2ccccc2)c2nc(C(=O)O)cc(OCC3(F)CCN(C)C3)c12` (centres unmarked) [compound 378, 4-[(3-fluoro-1-methylpyrrolidin-3-yl)methoxy]-3-methyl-1-phenyl-1H-pyrazolo[3,4-b]pyridine-6-carboxylic acid], the “% Activation” value at ΔF508-CFTR [1] (setting [4]) is recorded as 14.56%; on ΔF508-CFTR [2], 140.5%. For the same compound, the values for the EC50 at ΔF508-CFTR [1] (setting [5]) and on ΔF508-CFTR [2] were 5010 nM and 3340 nM, respectively.

As to `CC(=O)N1CCN(c2cc(C(=O)O)nc3c2c(C)nn3-c2ccccc2)CC1` [compound 132, 4-(4-acetylpiperazin-1-yl)-3-methyl-1-phenyl-1H-pyrazolo[3,4-b]pyridine-6-carboxylic acid], the figures for the “% Activation” value at ΔF508-CFTR [1] (setting [4]) and on ΔF508-CFTR [2] were 13.45% and 156.4%, respectively. Also, the EC50 on ΔF508-CFTR [1] (setting [5]) was > 10000 nM; on ΔF508-CFTR [2] it was 3340 nM.

For the compound `CO[C@@H]1CCN(c2cc(C(=O)O)nc3c2c(C)nn3-c2ccccc2)C1` [compound 295, 4-[(3R)-3-methoxypyrrolidin-1-yl]-3-methyl-1-phenyl-1H-pyrazolo[3,4-b]pyridine-6-carboxylic acid], the entries for the “% Activation” value at ΔF508-CFTR [1] (setting [4]) and on ΔF508-CFTR [2] were 46.475% and 172.1%, respectively. Besides, the EC50 on ΔF508-CFTR [1] (setting [5]) and on ΔF508-CFTR [2] was 2510 nM each time.

As to `CCC1(COc2cc(C(=O)O)nc3c2c(C2CCC2)nn3-c2ccccc2)COC1` [compound 581, 3-cyclobutyl-4-[(3-ethyloxetan-3-yl)methoxy]-1-phenyl-1H-pyrazolo[3,4-b]pyridine-6-carboxylic acid], the “% Activation” value at ΔF508-CFTR [1] (setting [3]) came to 146%; on ΔF508-CFTR [2], 377.8%. For the same compound, the EC50 at ΔF508-CFTR [1] (setting [3]) worked out at 250 nM; at ΔF508-CFTR [2], 203 nM.

Take `O=C(O)c1cc(N2CC(N3CCCCC3)C2)c2c(C3CCC3)nn(-c3ccccc3)c2n1` [compound 466, 3-cyclobutyl-1-phenyl-4-[3-(piperidin-1-yl)azetidin-1-yl]-1H-pyrazolo[3,4-b]pyridine-6-carboxylic acid]: the results for the “% Activation” value at ΔF508-CFTR [1] (setting [3]) and on ΔF508-CFTR [2] were 116.25% and 271.1%, respectively. The 50% effective concentration (EC50) amounted to 2330 nM at ΔF508-CFTR [1] (setting [3]) and 1290 nM on ΔF508-CFTR [2].

Regarding `CC(C)c1nn(-c2cccc(N(C)C)n2)c2nc(C(=O)O)cc(-c3ccc(N4CCOCC4)cc3)c12` [compound 267, 1-[6-(dimethylamino)pyridin-2-yl]-4-[4-(morpholin-4-yl)phenyl]-3-(propan-2-yl)-1H-pyrazolo[3,4-b]pyridine-6-carboxylic acid], the “% Activation” value was 318.9% on ΔF508-CFTR [1] (setting [4]) and 498.35% at ΔF508-CFTR [2]. Besides, the EC50 on ΔF508-CFTR [1] (setting [5]) worked out at 807 nM; on ΔF508-CFTR [2], 412 nM.

In the case of `CC(C)c1nn(-c2cccc(N3CCCC3)c2)c2nc(C(=O)O)cc(-c3ccc(N(C)C4CCOCC4)nc3)c12` [compound 250, 4-{6-[methyl(oxan-4-yl)amino]pyridin-3-yl}-3-(propan-2-yl)-1[3-(pyrrolidin-1-yl)phenyl]-1H-pyrazolo[3,4-b]pyridine-6-carboxylic acid], the entries for the “% Activation” value on ΔF508-CFTR [1] (setting [4]) and at ΔF508-CFTR [2] were 394.7% and 622.03%, respectively. The results for the EC50 at ΔF508-CFTR [1] (setting [5]) and at ΔF508-CFTR [2] were 456 nM and 508 nM, respectively.

As to `COCCN1CCN(C2CCN(c3cc(C(=O)O)nc4c3c(C3CCC3)nn4-c3ccc(F)cc3)CC2)CC1` [compound 896, 3-cyclobutyl-1-(4-fluorophenyl)-4-{4-[4-(2-methoxyethyl)piperazin-1-yl]piperidin-1-yl}-1H-pyrazolo[3,4-b]pyridine-6-carboxylic acid], at ΔF508-CFTR [1] (setting [3]), the “% Activation” value was 358.8% and the EC50 was 1630 nM. Besides, on ΔF508-CFTR [2], the “% Activation” value was 513.5% and the EC50 was found to be 700 nM.

As for `CC(C)c1nn(-c2ccc(F)cc2)c2nc(C(=O)O)cc(OCCC3CCOCC3)c12` [compound 604, 1-(4-fluorophenyl)-4-[2-(oxan-4-yl)ethoxy]-3-(propan-2-yl)-1H-pyrazolo[3,4-b]pyridine-6-carboxylic acid], at ΔF508-CFTR [1] (setting [3]), the “% Activation” value was determined as 142.9% and the EC50 amounted to 738 nM. On ΔF508-CFTR [2], the “% Activation” value is 292.2% and the EC50 stood at 256 nM.

Take `O=C(O)c1cc(N2CCC(N3CCN(C4COC4)CC3)CC2)c2c(C3CCC3)nn(-c3ccc(F)cc3)c2n1` [compound 899, 3-cyclobutyl-1-(4-fluorophenyl)-4-{4-[4-(oxetan-3-yl)piperazin-1-yl]piperidin-1-yl}-1H-pyrazolo[3,4-b]pyridine-6-carboxylic acid]: at ΔF508-CFTR [1] (setting [3]), the “% Activation” value is recorded as 210.9% and the EC50 was 3100 nM. For the same compound, on ΔF508-CFTR [2], the “% Activation” value is 351.9% and the EC50 stood at 309 nM.

With `CN(C)c1ncc(-c2cc(C(=O)O)nc3c2c(C(C)(C)C)nn3C2CCCCC2)cn1` [compound 147, 3-tert-butyl-1-cyclohexyl-4-[2-(dimethylamino)pyrimidin-5-yl]-1H-pyrazolo[3,4-b]pyridine-6-carboxylic acid], the “% Activation” value at ΔF508-CFTR [1] (setting [4]) turned out to be 114.65%; at ΔF508-CFTR [2] it was 318.9%. Moreover, the EC50 was found to be 1050 nM at ΔF508-CFTR [1] (setting [5]) and 831 nM at ΔF508-CFTR [2].

Turning to `CCOCC1(F)CCCN(c2cc(C(=O)O)nc3c2c(C2CCC2)nn3-c2ccccc2)C1` (centres unmarked) [compound 460, 3-cyclobutyl-4-[3-(ethoxymethyl)-3-fluoropiperidin-1-yl]-1-phenyl-1H-pyrazolo[3,4-b]pyridine-6-carboxylic acid], on ΔF508-CFTR [1] (setting [3]), the “% Activation” value amounted to 138.15% and the EC50 stood at 642 nM. At ΔF508-CFTR [2], the “% Activation” value is reported as 322.2% and the EC50 is 328 nM.

For the compound `O=C(O)c1cc(N2CC(N3CCOC3=O)C2)c2c(C3CCC3)nn(-c3ccccc3)c2n1` [compound 529, 3-cyclobutyl-4-[3-(2-oxo-1,3-oxazolidin-3-yl)azetidin-1-yl]-1-phenyl-1H-pyrazolo[3,4-b]pyridine-6-carboxylic acid], at ΔF508-CFTR [1] (setting [3]), the “% Activation” value is 5.039% and the EC50 is > 10000 nM. Besides, on ΔF508-CFTR [2], the “% Activation” value is on record as 126.7% and the half-maximal effective concentration (EC50) is > 10000 nM.

In the case of `CC(C)c1nn(-c2ccc(F)cc2)c2nc(C(=O)O)cc(N3CCN4CCC[C@@H]4C3)c12` [compound 770, 1-(4-fluorophenyl)-4-[(8aR)-hexahydropyrrolo[1,2-a]pyrazin-2(1H)-yl]-3-(propan-2-yl)-1H-pyrazolo[3,4-b]pyridine-6-carboxylic acid], at ΔF508-CFTR [1] (setting [3]), the “% Activation” value worked out at 85.33% and the EC50 is 1670 nM. Also, on ΔF508-CFTR [2], the “% Activation” value came to 234.5% and the EC50 was determined as 900 nM.

Regarding `COC1CN(c2cc(C(=O)O)nc3c2c(C2CCC2)nn3-c2ccccc2)C1` [compound 542, 3-cyclobutyl-4-(3-methoxyazetidin-1-yl)-1-phenyl-1H-pyrazolo[3,4-b]pyridine-6-carboxylic acid], on ΔF508-CFTR [1] (setting [3]), the “% Activation” value turned out to be 104.6% and the EC50 is 1840 nM. For the same compound, on ΔF508-CFTR [2], the “% Activation” value was determined as 290.6% and the 50% effective concentration (EC50) worked out at 1780 nM.

For `COc1cc(-n2nc(C3CCC3)c3c(N4CCC(N5CCOCC5)CC4)cc(C(=O)O)nc32)ccc1F` [compound 908, 3-cyclobutyl-1-(4-fluoro-3-methoxyphenyl)-4-[4-(morpholin-4-yl)piperidin-1-yl]-1H-pyrazolo[3,4-b]pyridine-6-carboxylic acid], at ΔF508-CFTR [1] (setting [3]), the “% Activation” value turned out to be 220.2% and the 50% effective concentration (EC50) was 256 nM. At ΔF508-CFTR [2], the “% Activation” value is on record as 486.75% and the half-maximal effective concentration (EC50) came out at 171 nM.

Take `Cc1nn(-c2ccccc2)c2nc(C(=O)O)cc(N3CCC(C(=O)N4CCCC4)CC3)c12` [compound 305, 3-methyl-1-phenyl-4-[4-(pyrrolidine-1-carbonyl)piperidin-1-yl]-1H-pyrazolo[3,4-b]pyridine-6-carboxylic acid]: the “% Activation” value worked out at 29.97% on ΔF508-CFTR [1] (setting [4]) and 170.5% on ΔF508-CFTR [2]. In addition, the figures for the concentration for a half-maximal effect (EC50) on ΔF508-CFTR [1] (setting [5]) and on ΔF508-CFTR [2] were 3120 nM and 1440 nM, respectively.

For `CC(C)c1nn(C2CCCCC2)c2nc(C(=O)O)cc(-c3cnc(N(C)C)nc3)c12` [compound 62, 1-cyclohexyl-4-[2-(dimethylamino)pyrimidin-5-yl]-3-(propan-2-yl)-1H-pyrazolo[3,4-b]pyridine-6-carboxylic acid], the “% Activation” value on ΔF508-CFTR [1] (setting [4]) worked out at 159.65%; on ΔF508-CFTR [2], 349.9%. In addition, the results for the concentration for a half-maximal effect (EC50) at ΔF508-CFTR [1] (setting [5]) and at ΔF508-CFTR [2] were 2630 nM and 1690 nM, respectively.

The EC50 is the concentration at which the effect is half-maximal.
